SMILES strings stand for the structures.

For assay [1], the target named is Carbonic anhydrase 12 (Homo sapiens, UniProt O43570). Briefly: Inhibition of human recombinant CA12 expressed in Escherichia coli by stopped flow CO2 hydration assay.
The target of assay [2] is T1, Carbonic anhydrase 9 (Homo sapiens, UniProt Q16790).
Description: Inhibition of human recombinant CA9 expressed in Escherichia coli by stopped flow CO2 hydration assay
Assay [3] addresses T1, Carbonic anhydrase 9. Put plainly: Binding affinity to human CA9.
For assay [4], the target named is Carbonic anhydrase 2 (Homo sapiens, UniProt P00918). Briefly: Binding affinity to human CA2.

Sequence of Carbonic anhydrase 12 (O43570 whole entry): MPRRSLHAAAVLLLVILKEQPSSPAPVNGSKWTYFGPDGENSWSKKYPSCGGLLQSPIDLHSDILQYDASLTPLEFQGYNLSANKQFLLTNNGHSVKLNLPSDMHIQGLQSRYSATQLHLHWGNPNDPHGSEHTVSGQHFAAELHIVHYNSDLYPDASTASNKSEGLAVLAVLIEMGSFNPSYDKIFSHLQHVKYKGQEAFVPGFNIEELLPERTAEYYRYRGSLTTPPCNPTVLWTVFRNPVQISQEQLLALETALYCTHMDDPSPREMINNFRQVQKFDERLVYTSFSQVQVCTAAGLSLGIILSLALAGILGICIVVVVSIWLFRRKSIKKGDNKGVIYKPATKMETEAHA

For `CC(=O)OC[C@H]1O[C@@H](S(=O)(=O)NCCCCCOS(N)(=O)=O)[C@H](OC(C)=O)[C@@H](OC(C)=O)[C@@H]1OC(C)=O`, the Ki in assay [1] was found to be 9 nM; in assay [2] it was 2 nM.

With `OC[C@H]1O[C@@](CO)(O[C@H]2O[C@H](CO)[C@@H](O)[C@H](O)[C@H]2O)[C@@H](O)[C@@H]1O` [SUCROSE], the figures for the Kd in assay [3] and in assay [4] were 150 mM and 450 mM, respectively.

These data come from ChEMBL document CHEMBL3600373, “Mapping Selective Inhibition of the Cancer-Related Carbonic Anhydrase IX Using Structure-Activity Relationships of Glucosyl-Based Sulfamates” (J Med Chem, 2015).
